According to patent US4254128A, “2-Adamantyl hydrazines and biocidal compositions thereof” (Teva Pharmaceutical Industries Ltd., priority 1977, dated 1981):
Counter-ions that a name gives are not always drawn.

How the values were obtained:
L. tropica amastigotes = assay: Anti leishmania test, amastigotes in peritoneal exudate cells in vitro; type: cell-based; details: 37° C.
Method: (§1) a. amastigotes in peritoneal exudate cells in Mc Coy's medium in vitro at 37° C.
+++=clearance of all parasites in 24 hours
++=clearance of all parasites in 48 hours
+=clearance of all parasites in 72 hours
±=Partial clearance of parasites in 72 hours or more
-=No activity against parasites.

Leishmania = assay: Anti leishmania tests, summary; type: cell-based, L. tropica; details: summary in words
Method: as §1
b. promastigotes in Mc Coy's medium in vitro at 27° C.

Sclerotinia = assay: Antifungal activity in plants, growth on solid agar; type: cell-based; details: read-out: inhibiting concentration
Method: (§2) Antiplant fungal activity was tested as follows:
(§3) Inhibition of growth on solid agar mixed with various concentrations of the tested compounds.

Pythium = assay: as above; type: cell-based; details: read-out: inhibiting concentration
Method: as §2, §3

S. rolfsii = assay: as above; type: cell-based; details: Agroathelia rolfsii, read-out: inhibiting concentration
Method: as §2, §3

[1] = tested on: Leptospira canicola Kipod 146; assay: Anti leptospiral activity (minimal inhibition concentration); type: cell-based; details: for MIC: Leptospira interrogans, KIPOD146, 240 h; for anti leptospiral activity: summary in words
Method: The tests were carried out under the following conditions:
Leptospira: Leptospira canicola Kipod 146
Inoculum: 1-10^5 cells/ml
Incubation time: 10 days, 28° C.
Evaluation: Direct count in dark field microscopy after 4,7 and 10 days.
2 Minimal+0.5% albumin (Pentex)
3 Korthof rich medium with 8% serum.
4 Korthof rich medium with 2% serum.

| MIC ([1]; Korthof + 2% serum) [µg/mL] | MIC ([1]; Korthof + 8% serum) [µg/mL] | MIC ([1]; minimal + Pentex (0.5% albumin)) [µg/mL] | MIC ([1]; minimal medium) [µg/mL] | SMILES | Leishmania amastigote activity score (L. tropica amastigotes; 10 μg) | Leishmania amastigote activity score (L. tropica amastigotes; 100 μg) | activity against Leishmania (Leishmania) | MIC (Sclerotinia) [µg/mL] | MIC (Pythium) [µg/mL] | MIC (S. rolfsii) [µg/mL] | anti leptospiral activity [1] |
| --- | --- | --- | --- | --- | --- | --- | --- | --- | --- | --- | --- |
| 12.5 | 125 | 6.25 | 3.12 | NNC1C2CC3CC(C2)CC1C3 (centres unmarked) [Example 18, 2-Adamantylhydrazine hydrochloride] | ++ (clearance of all parasites in 48 hours) | +++ (clearance of all parasites in 24 hours) | active | 50 | 50 | 50 | active |
| – | 6.25 | – | 6.25 | CN(NC1C2CC3CC(C2)CC1C3)c1cccc(C(F)(F)F)c1 (centres unmarked) [Example 29, 1-(2'-Adamantyl)-2-methyl-2-(m-trifluoromethylphenyl)hydrazine hydrochloride hemihydrate] | – | – | – | 50 | 50 | 50 | active |
